Results from patent US9302999B2, “Substituted triazoles as herbicides” (E. I. DU PONT DE NEMOURS AND COMPANY, priority 2012, dated 2016).
Where two headings read alike, the source gives them in different places.

Tests used:
Assay type in all cases: in vivo
[1] = test system: nutsedge, yellow (yellow nutsedge, Cyperus esculentus); assay: Test C pre-/postemergence: nutsedge, yellow
Method in brief: (§1)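 Preemergence on seeds in loam/sand, postemergence on 2–18 cm (1–4-leaf) plants in peat-based medium; compounds in non-phytotoxic solvent with surfactant. After 13–15 days in greenhouse, visual rating versus controls, 0 (no effect) to 100 (complete control).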

[2] = test system: foxtail, giant (giant foxtail, Setaria faberii); assay: Test C pre-/postemergence: foxtail, giant
Method in brief: as §1

soybean (Glycine max) = assay: Test C pre-/postemergence: soybean
Method in brief: as §1

corn (Zea mays) = assay: Test A pre-/postemergence: corn; settings: Zea mays, 240 h
Method in brief: (§2)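 Soil medium was loam blended with sand; treatments pre- and postemergence were applied concurrently, postemergence at one- to two-leaf stage. Approximately ten days in greenhouse preceded visual comparison with untreated controls, scored 0 (no effect) to 100 (complete control).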

[3] = test system: ryegrass, Italian (Italian ryegrass, Lolium multiflorum); assay: Test C pre-/postemergence: ryegrass, Italian
Excerpt: (§3) Seeds of plant species selected from blackgrass (Alopecurus myosuroides), bromegrass, downy (downy bromegrass, Bromus tectorum), foxtail, green (green foxtail, Setaria viridis), ryegrass, Italian (Italian ryegrass, Lolium multiflorum), winter wheat (Triticum aestivum), wild oat (Avena fatua), galium (catchweed bedstraw, Galium aparine), bermudagrass (Cynodon dactylon), surinam grass (Brachiaria decumbens), cocklebur (common cocklebur, Xanthium strumarium), corn (Zea mays), large crabgrass (Digitaria sanguinalis), woolly cupgrass (Eriochloa villosa), foxtail, giant (giant foxtail, Setaria faberii), goosegrass (Eleusine indica), johnsongrass (Sorghum halepense), kochia (Kochia scoparia), lambsquarters (Chenopodium album), morningglory (Ipomoea coccinea), nightshade (eastern black nightshade, Solanum ptycanthum), nutsedge, yellow (yellow nutsedge, Cyperus esculentus), pigweed (Amaranthus retroflexus), ragweed (common ragweed, Ambrosia elation), soybean (Glycine max), common (oilseed) sunflower (Helianthus annuus), Russian thistle (Salsola kali) and velvetleaf (Abutilon theophrasti) were planted into a blend of loam soil and sand and treated preemergence with test chemicals formulated in a non-phytotoxic solvent mixture which included a surfactant.
(§4) At the same time, plants selected from these crop and weed species and also barley (winter barley, Hordeum vulgare), canarygrass (Phalaris minor), chickweed (common chickweed, Stellaria media) windgrass (Apera spica-venti) and deadnettle (henbit deadnettle, Lamium amplexicaule) were planted in pots containing Redi-Earth® planting medium (Scotts Company, 14111 Scottslawn Road, Marysville, Ohio 43041) comprising spaghnum peat moss, vermiculite, wetting agent and starter nutrients and treated with postemergence applications of test chemicals formulated in the same manner. Plants ranged in height from 2 to 18 cm (1- to 4-leaf stage) for postemergence treatments.
(§5) Treated plants and controls were maintained in a greenhouse for 13 to 15 days, after which time all species were compared to controls and visually evaluated. Plant response ratings, summarized in Table C, are based on a scale of 0 to 100 where 0 is no effect and 100 is complete control. A dash (-) response means no test result.

[4] = test system: crabgrass, large (large crabgrass, Digitaria sanguinalis); assay: Test A pre-/postemergence: crabgrass, large; settings: Digitaria sanguinalis, 240 h; for pest or weed control at 125 g/ha: 125 g ai/ha; for pest or weed control at 500 g/ha: 500 g ai/ha
Method in brief: as §2

[5] = test system: pigweed (Amaranthus retroflexus); assay: Test A pre-/postemergence: pigweed; settings: Amaranthus retroflexus, 240 h; for pest or weed control at 125 g/ha: 125 g ai/ha; for pest or weed control at 500 g/ha: 500 g ai/ha
Method in brief: as §2

[6] = test system: wheat (Triticum aestivum); assay: Test A pre-/postemergence: wheat; settings: Triticum aestivum, 240 h; for plant injury at 125 g/ha: 125 g ai/ha; for plant injury at 500 g/ha: 500 g ai/ha
Method in brief: as §2

[7] = test system: barnyardgrass (Echinochloa crus-galli); assay: Test A pre-/postemergence: barnyardgrass; settings: Echinochloa crus-galli, 240 h; for pest or weed control at 125 g/ha: 125 g ai/ha; for pest or weed control at 500 g/ha: 500 g ai/ha
Method in brief: as §2

[8] = test system: winter wheat (Triticum aestivum); assay: Test C pre-/postemergence: winter wheat
Excerpt: as §3, §4, §5

[9] = test system: lambsquarters (Chenopodium album); assay: Test C pre-/postemergence: lambsquarters
Excerpt: as §3, §4, §5

[10] = Postemergence, 31 g ai/ha, scale 0 to 100 (0 no effect, 100 complete control)
[11] = Postemergence, 62 g ai/ha, scale 0 to 100 (0 no effect, 100 complete control)
[12] = Postemergence, 125 g ai/ha, scale 0 to 100, 0 no effect, 100 complete control
[13] = Postemergence, 250 g ai/ha, scale 0 to 100
[14] = Preemergence, 31 g ai/ha, scale of 0 to 100, 0 is no effect, 100 is complete control
[15] = Preemergence, 62 g ai/ha, scale of 0 to 100, 0 is no effect, 100 is complete control
[16] = Preemergence, 125 g ai/ha, scale 0 to 100, 0 no effect, 100 complete control
[17] = Preemergence, 250 g ai/ha, scale 0 to 100, 0 no effect, 100 complete control

Cc1nn(-c2ccc(C(F)(F)F)cc2)nc1Cc1ccnc(C(F)(F)F)c1 [Compound 47, 4-[[5-methyl-2-[4-(trifluoromethyl)phenyl]-2H-1,2,3-triazol-4-yl]methyl]-2-(trifluoromethyl)pyridine]
Plant response rating, Nutsedge, Yellow [1, 10]: 0 | Plant response rating, Nutsedge, Yellow [1, 11]: 0 | Plant response rating, Nutsedge, Yellow [1, 12]: 0 | Plant response rating, Nutsedge, Yellow [1, 13]: 0 | Plant response rating, Nutsedge, Yellow [1, 14]: 0 | Plant response rating, Nutsedge, Yellow [1, 15]: 0 | Plant response rating, Nutsedge, Yellow [1, 16]: 0 | Plant response rating, Nutsedge, Yellow [1, 17]: 0 | Plant response rating, Foxtail, Giant [2, 10]: 65 | Plant response rating, Foxtail, Giant [2, 11]: 65 | Plant response rating, Foxtail, Giant [2, 12]: 80 | Plant response rating, Foxtail, Giant [2, 13]: 98 | Plant response rating, Foxtail, Giant [2, 14]: 95 | Plant response rating, Foxtail, Giant [2, 15]: 100 | Plant response rating, Foxtail, Giant [2, 16]: 100 | Plant response rating, Foxtail, Giant [2, 17]: 100 | Plant response rating, Soybean (soybean (Glycine max); [10]): 40 | Plant response rating, Soybean (soybean (Glycine max); [11]): 70 | Plant response rating, Soybean (soybean (Glycine max); [12]): 75 | Plant response rating, Soybean (soybean (Glycine max); [13]): 75 | Plant response rating, Soybean (soybean (Glycine max); [14]): 0 | Plant response rating, Soybean (soybean (Glycine max); [15]): 0 | Plant response rating, Soybean (soybean (Glycine max); [16]): 5 | Plant response rating, Soybean (soybean (Glycine max); [17]): 35 | plant injury at 125 g/ha (corn (Zea mays); post-emergence, Postemergence, 125 g ai/ha, 0 to 100 scale, 0 is no effect, 100 is complete control, read-out: Corn plant response rating): 20% | plant injury at 500 g/ha (corn (Zea mays); post-emergence, Postemergence, 500 g ai/ha, visual rating on 0 to 100 scale (0 no effect, 100 complete control), approximately ten days, read-out: Corn plant response rating): 40% | Corn plant response rating (crop injury, 0 = no effect, 100 = complete kill) at 125 g/ha (corn (Zea mays); pre-emergence, Preemergence, 125 g ai/ha, 0 to 100 scale (0 no effect, 100 complete control)): 20% | Corn plant response rating (crop injury, 0 = no effect, 100 = complete kill) at 500 g/ha (corn (Zea mays); pre-emergence, Preemergence, 500 g ai/ha, 0 to 100 scale, 0 is no effect, 100 is complete control): 30% | Plant response rating, Ryegrass, Italian [3, 10]: 35 | Plant response rating, Ryegrass, Italian [3, 11]: 65 | Plant response rating, Ryegrass, Italian [3, 12]: 75 | Plant response rating, Ryegrass, Italian [3, 13]: 85 | Plant response rating, Ryegrass, Italian [3, 14]: 35 | Plant response rating, Ryegrass, Italian [3, 15]: 50 | Plant response rating, Ryegrass, Italian [3, 16]: 90 | Plant response rating, Ryegrass, Italian [3, 17]: 98 | pest or weed control at 125 g/ha ([4]; post-emergence, Postemergence, 0 to 100 scale, 0 is no effect, 100 is complete control, read-out: Crabgrass, Large plant response rating): 80% | pest or weed control at 500 g/ha ([4]; post-emergence, Postemergence, visual rating on 0 to 100 scale (0 no effect, 100 complete control), approximately ten days, read-out: Crabgrass, Large plant response rating): 90% | pest or weed control at 125 g/ha ([4]; pre-emergence, Preemergence, 0 to 100 scale (0 no effect, 100 complete control), read-out: Plant response rating, Crabgrass, Large): 100% | pest or weed control at 500 g/ha ([4]; pre-emergence, Preemergence, 0 to 100 scale, 0 is no effect, 100 is complete control, read-out: Plant response rating, Crabgrass, Large): 100% | pest or weed control at 125 g/ha ([5]; post-emergence, Postemergence, 0 to 100 scale, 0 is no effect, 100 is complete control, read-out: Pigweed plant response rating): 100% | pest or weed control at 500 g/ha ([5]; post-emergence, Postemergence, visual rating on 0 to 100 scale (0 no effect, 100 complete control), approximately ten days, read-out: Pigweed plant response rating): 100% | pest or weed control at 125 g/ha ([5]; pre-emergence, Preemergence, 0 to 100 scale (0 no effect, 100 complete control), read-out: Plant response rating, Pigweed): 100% | pest or weed control at 500 g/ha ([5]; pre-emergence, Preemergence, 0 to 100 scale, 0 is no effect, 100 is complete control, read-out: Plant response rating, Pigweed): 100% | plant injury at 125 g/ha ([6]; post-emergence, Postemergence, 0 to 100 scale, 0 is no effect, 100 is complete control, read-out: Wheat plant response rating): 30% | plant injury at 500 g/ha ([6]; post-emergence, Postemergence, visual rating on 0 to 100 scale (0 no effect, 100 complete control), approximately ten days, read-out: Wheat plant response rating): 50% | plant injury at 125 g/ha ([6]; pre-emergence, Preemergence, 0 to 100 scale (0 no effect, 100 complete control), read-out: Plant response rating, Wheat): 30% | plant injury at 500 g/ha ([6]; pre-emergence, Preemergence, 0 to 100 scale, 0 is no effect, 100 is complete control, read-out: Plant response rating, Wheat): 40% | pest or weed control at 125 g/ha ([7]; post-emergence, Postemergence, 0 to 100 scale, 0 is no effect, 100 is complete control, read-out: Barnyardgrass plant response rating): 90% | pest or weed control at 500 g/ha ([7]; post-emergence, Postemergence, visual rating on 0 to 100 scale (0 no effect, 100 complete control), approximately ten days, read-out: Barnyardgrass plant response rating): 90% | pest or weed control at 125 g/ha ([7]; pre-emergence, Preemergence, 0 to 100 scale (0 no effect, 100 complete control), read-out: Plant response rating, Barnyardgrass): 90% | pest or weed control at 500 g/ha ([7]; pre-emergence, Preemergence, 0 to 100 scale, 0 is no effect, 100 is complete control, read-out: Plant response rating, Barnyardgrass): 100% | Plant response rating, Wheat [8, 10]: 15 | Plant response rating, Wheat [8, 11]: 35 | Plant response rating, Wheat [8, 12]: 45 | Plant response rating, Wheat [8, 13]: 50 | Plant response rating, Wheat [8, 14]: 0 | Plant response rating, Wheat [8, 15]: 5 | Plant response rating, Wheat [8, 16]: 35 | Plant response rating, Wheat [8, 17]: 40 | Plant response rating, Lambsquarters [9, 10]: 100 | Plant response rating, Lambsquarters [9, 14]: 100 | Plant response rating, Lambsquarters [9, 15]: 100 | Plant response rating, Lambsquarters [9, 16]: 100 | Plant response rating, Lambsquarters [9, 17]: 100
